The numbers were not newly measured in patent US7851190B2, “Biosynthetic gene cluster for leptomycins” (priority 2003, dated 2010), which cites them from elsewhere.

Data set [1] deals with adriamycin, amsacrine and mitoxantrone resistant P388 leukemia, other leukemias, B16 melanoma, Ridgway osteogenic and M5076 sarcomas and mammary adenocarinoma.
Data set [2] relates to HIV-1 Rev. The conditions noted are these: in vitro; FIG. 2.

Turning to `CCC(=C/[C@H](C)C/C=C/C(C)=C/[C@@H](C)C(=O)[C@@H](C)[C@H](O)[C@@H](C)C/C(C)=C/C(=O)O)/C=C/[C@@H]1OC(=O)C=C[C@@H]1C` [LMB, Leptomycin B], the acute toxicity entry in data set [1] (exacerbated upon more frequent or oral administration) is “gastrointestinal”. Further, the antitumor activity entry in data set [1] (mouse murine and xenograph cancer models, low doses) is reported as “Activity was observed at low doses”. Further, in data set [2], the “difference in activity between a Rev-dependent assay and cytotoxicity to the same cells” value is given as “approx. 250 fold”.
With `CCOC(=O)/C=C\n1ncnc1-c1cc(Cl)ccc1N` [PKF050-638], the “difference in activity between a Rev-dependent assay and cytotoxicity to the same cells” value in data set [2] is reported as 75 fold.
